Source: US10500166B2, “Methods for the treatment of erectile dysfunction using fispemifene” (QUATRX PHARMACEUTICALS, priority 2007, dated 2019)

Key:
Format in all cases: in vivo, human
[1] = Phase I repeated dose study 101-50202: safety and tolerability
Method: A suitable dosage is expected to be in a range of about 5 mg/day to about 1500 mg/day. In a phase I repeated dose study, twenty-three healthy men aged 50 to 70 years received daily 10 mg, 30 mg 100 mg and 300 mg dosages of fispemifene for 28 days. […] All other adverse events were single cases. Fispemifene at the 100 and 300 mg/day dose levels increased serum total testosterone levels 32% and 75% respectively. Thus, a preferred dosage range of fispemifene to treat ED is expected to be 10 to 1000 mg/day.
(§1) Fispemifene has been studied in two phase I studies in humans—in a single dose and a repeated dose study. Effect of fispemifene on hormone levels was one main focus of the repeated dose study. The phase I repeated dose study (number 101-50202) was a randomized, double-blind, placebo-controlled 28-day dose-escalation study performed in 31 healthy, elderly men, aged 50-68 years. The main objective of the study was to investigate the tolerability, safety and pharmacokinetics of fispemifene after repeated oral doses, but the study focused also on the effects of fispemifene on serum free and total testosterone, estradiol, and other relevant hormones. The fispemifene doses 10, 30, 100 and 300 mg per day and placebo were administered once every morning as capsules containing 10 mg or 100 mg of fispemifene, or placebo.
(§2) The variables for safety and tolerability were adverse events, vital signs, 12-lead ECG, clinical laboratory evaluations, physical examination, ultrasound examinations (mammary glands) and inhibin B. For pharmacokinetics, the concentrations of fispemifene and its metabolite(s) were to be evaluated. For pharmacodynamics, serum concentrations of FSH, LH, estradiol, testosterone, SHBG, prolactin, aldosterone, cortisol and TSH before and during treatment were measured and compared with the concentrations in the placebo-group.

SHBG = assay: Phase I repeated dose study 101-50202: serum SHBG;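 as to Serum SHBG, Mean: SHBG concentrations in nmol/L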
Excerpt: as §1, §2

serum testosterone = assay: Phase I repeated dose study 101-50202: serum total testosterone; settings: for increase of the mean serum total testosterone compared to baseline: 28 days, healthy men
Excerpt: as §1, §2

LH = assay: Phase I repeated dose study 101-50202: serum LH
Excerpt: as §1, §2

FSH = assay: Phase I repeated dose study 101-50202: serum FSH
Excerpt: as §1, §2

[2] = during the 28 days of treatment

## OCCOCCOc1ccc(/C(=C(/CCCl)c2ccccc2)c2ccccc2)cc1 [Fispemifene, (Z)-2-{2-[4-(4-Chloro-1,2-diphenylbut-1-enyl)phenoxy]ethoxy}ethanol]
[1]; 10, 30, 100 and 300 mg daily for 28 days
  adverse events reported more than once: upper respiratory tract infection, nausea and abdominal pain
[1]; 10, 30, 100 and 300 mg daily for 28 days, all dose levels
  tolerability: well tolerated
[1]; any dose (10-300 mg/day)
  safety concerns: no safety concerns
SHBG; 10 mg/day, Baseline
  Serum SHBG, Mean: 47.7 nmol/L
SHBG; 10 mg/day, Day 8
  Serum SHBG, Mean: 46.3 nmol/L
SHBG; 10 mg/day, Day 15
  Serum SHBG, Mean: 48.2 nmol/L
SHBG; 10 mg/day, Day 22
  Serum SHBG, Mean: 50.2 nmol/L
SHBG; 10 mg/day, Day 28
  Serum SHBG, Mean: 45.2 nmol/L
SHBG; 30 mg/day, Baseline
  Serum SHBG, Mean: 34.2 nmol/L
SHBG; 30 mg/day, Day 8
  Serum SHBG, Mean: 34.2 nmol/L
SHBG; 30 mg/day, Day 15
  Serum SHBG, Mean: 37.4 nmol/L
SHBG; 30 mg/day, Day 22
  Serum SHBG, Mean: 37.2 nmol/L
SHBG; 30 mg/day, Day 28
  Serum SHBG, Mean: 36.6 nmol/L
SHBG; 100 mg/day, Baseline
  Serum SHBG, Mean: 41.7 nmol/L
SHBG; 100 mg/day, Day 8
  Serum SHBG, Mean: 47.7 nmol/L
SHBG; 100 mg/day, Day 15
  Serum SHBG, Mean: 52.0 nmol/L
SHBG; 100 mg/day, Day 22
  Serum SHBG, Mean: 55.7 nmol/L
SHBG; 100 mg/day, Day 28
  Serum SHBG, Mean: 50.8 nmol/L
SHBG; 300 mg/day, Baseline
  Serum SHBG, Mean: 50.7 nmol/L
SHBG; 300 mg/day, Day 8
  Serum SHBG, Mean: 64.2 nmol/L
SHBG; 300 mg/day, Day 15
  Serum SHBG, Mean: 66.2 nmol/L
SHBG; 300 mg/day, Day 22
  Serum SHBG, Mean: 65.2 nmol/L
SHBG; 300 mg/day, Day 28
  Serum SHBG, Mean: 58.3 nmol/L
SHBG; [2]
  effect on serum concentration of SHBG: increased
Serum testosterone; 10 mg/day, Baseline
  Serum total testosterone, Mean: 19.33 nmol/L
Serum testosterone; 10 mg/day, Day 8
  Serum total testosterone, Mean: 19.83 nmol/L
Serum testosterone; 10 mg/day, Day 15
  Serum total testosterone, Mean: 20.50 nmol/L
Serum testosterone; 10 mg/day, Day 22
  Serum total testosterone, Mean: 22.00 nmol/L
Serum testosterone; 10 mg/day, Day 28
  Serum total testosterone, Mean: 17.40 nmol/L
Serum testosterone; 30 mg/day, Baseline
  Serum total testosterone, Mean: 15.00 nmol/L
Serum testosterone; 30 mg/day, Day 15
  Serum total testosterone, Mean: 15.00 nmol/L
Serum testosterone; 30 mg/day, Day 22
  Serum total testosterone, Mean: 15.80 nmol/L
Serum testosterone; 30 mg/day, Day 28
  Serum total testosterone, Mean: 14.80 nmol/L
Serum testosterone; 100 mg and 300 mg
  testosterone compared with placebo: increased statistically significantly
Serum testosterone; 100 mg or 300 mg, 28-day treatment period
  subjects in whom increase in testosterone serum concentration was seen: all the subjects
Serum testosterone; 100 mg/day
  increase of the mean serum total testosterone compared to baseline: 32%
Serum testosterone; 100 mg/day, listed as fispemifene
  increase of the mean serum total testosterone compared to baseline: about 32%
Serum testosterone; 100 mg/day, Baseline
  Serum total testosterone, Mean: 14.27 nmol/L
Serum testosterone; 100 mg/day, Day 8
  Serum total testosterone, Mean: 18.67 nmol/L
Serum testosterone; 100 mg/day, Day 15
  Serum total testosterone, Mean: 19.00 nmol/L
Serum testosterone; 100 mg/day, Day 22
  Serum total testosterone, Mean: 17.83 nmol/L
Serum testosterone; 100 mg/day, Day 28
  Serum total testosterone, Mean: 18.83 nmol/L
Serum testosterone; 300 mg/day (highest dose)
  men with serum testosterone level above the upper limit of normal range (33 nmol/L) during treatment: Two out of six
Serum testosterone; 300 mg/day
  increase of the mean serum total testosterone compared to baseline: 75%
Serum testosterone; 300 mg/day, listed as fispemifene
  increase of the mean serum total testosterone compared to baseline: about 75%
Serum testosterone; 300 mg/day, Baseline
  Serum total testosterone, Mean: 15.67 nmol/L
Serum testosterone; 300 mg/day, Day 8
  Serum total testosterone, Mean: 23.17 nmol/L
Serum testosterone; 300 mg/day, Day 15
  Serum total testosterone, Mean: 27.00 nmol/L
Serum testosterone; 300 mg/day, Day 22
  Serum total testosterone, Mean: 27.83 nmol/L
Serum testosterone; 300 mg/day, Day 28
  Serum total testosterone, Mean: 27.50 nmol/L
Serum testosterone; [2]
  effect on serum concentration of testosterone: increased
Serum testosterone; healthy older men, within 28 days from the start of treatment
  effect on serum testosterone concentration: clinically and statistically significant and dose dependent increase
LH; 10 mg/day, Baseline
  Serum LH, Mean: 3.47 U/L
LH; 10 mg/day, Day 8
  Serum LH, Mean: 3.12 U/L
LH; 10 mg/day, Day 15
  Serum LH, Mean: 2.87 U/L
LH; 10 mg/day, Day 22
  Serum LH, Mean: 3.56 U/L
LH; 10 mg/day, Day 28
  Serum LH, Mean: 3.02 U/L
LH; 30 mg/day, Baseline
  Serum LH, Mean: 3.58 U/L
LH; 30 mg/day, Day 8
  Serum LH, Mean: 4.26 U/L
LH; 30 mg/day, Day 15
  Serum LH, Mean: 5.02 U/L
LH; 30 mg/day, Day 22
  Serum LH, Mean: 4.32 U/L
LH; 30 mg/day, Day 28
  Serum LH, Mean: 4.42 U/L
LH; 100 mg/day, Baseline
  Serum LH, Mean: 4.12 U/L
LH; 100 mg/day, Day 8
  Serum LH, Mean: 5.52 U/L
LH; 100 mg/day, Day 15
  Serum LH, Mean: 6.82 U/L
LH; 100 mg/day, Day 22
  Serum LH, Mean: 7.18 U/L
LH; 100 mg/day, Day 28
  Serum LH, Mean: 7.60 U/L
LH; 300 mg/day, Baseline
  Serum LH, Mean: 4.58 U/L
LH; 300 mg/day, Day 8
  Serum LH, Mean: 6.80 U/L
LH; 300 mg/day, Day 15
  Serum LH, Mean: 6.75 U/L
LH; 300 mg/day, Day 22
  Serum LH, Mean: 7.77 U/L
LH; 300 mg/day, Day 28
  Serum LH, Mean: 6.70 U/L
LH; [2]
  effect on serum concentration of LH: increased
FSH; 10 mg/day, Baseline
  Serum FSH, Mean: 5.42 U/L
FSH; 10 mg/day, Day 8
  Serum FSH, Mean: 5.87 U/L
FSH; 10 mg/day, Day 15
  Serum FSH, Mean: 5.20 U/L
FSH; 10 mg/day, Day 22
  Serum FSH, Mean: 6.60 U/L
FSH; 10 mg/day, Day 28
  Serum FSH, Mean: 5.66 U/L
FSH; 30 mg/day, Baseline
  Serum FSH, Mean: 9.14 U/L
FSH; 30 mg/day, Day 8
  Serum FSH, Mean: 9.78 U/L
FSH; 30 mg/day, Day 15
  Serum FSH, Mean: 10.14 U/L
FSH; 30 mg/day, Day 22
  Serum FSH, Mean: 10.18 U/L
FSH; 30 mg/day, Day 28
  Serum FSH, Mean: 8.42 U/L
FSH; 100 mg/day, Baseline
  Serum FSH, Mean: 6.30 U/L
FSH; 100 mg/day, Day 8
  Serum FSH, Mean: 7.68 U/L
FSH; 100 mg/day, Day 15
  Serum FSH, Mean: 8.10 U/L
FSH; 100 mg/day, Day 22
  Serum FSH, Mean: 8.20 U/L
FSH; 100 mg/day, Day 28
  Serum FSH, Mean: 7.73 U/L
FSH; 300 mg/day, Baseline
  Serum FSH, Mean: 6.80 U/L
FSH; 300 mg/day, Day 8
  Serum FSH, Mean: 8.80 U/L
FSH; 300 mg/day, Day 15
  Serum FSH, Mean: 8.73 U/L
FSH; 300 mg/day, Day 22
  Serum FSH, Mean: 8.85 U/L
FSH; 300 mg/day, Day 28
  Serum FSH, Mean: 7.57 U/L
FSH; [2]
  effect on serum concentration of FSH: increased
